US9115134B2, “6-triazolopyridazine sulfanyl benzothiazole derivatives as MET inhibitors” (SANOFI, priority 2007, dated 2015)
Structures can show the parent of a compound that is named as a salt.

What was measured:
[1] = biological target: T1, MET (Homo sapiens, UniProt P08581); experiment: Test B: Inhibition of the autophosphorylation of MET; ELISA technique (pppY1230,1234,1235) in MKN45 cells; format: cell-based; set-up: Seed MKN45 cells into 96-well plates (Cell coat BD polylysine) at 20 000 cells/well; endogenous in cells; host or cells: MKN45 cells; settings: 1 h treatment, PhosphoMET ELISA
Experimental: Leave to adhere for 24 hours in an incubator.
The cells are treated the day after seeding with the products at 6 concentrations in duplicate for 1 h. At least 3 control wells are treated with the same final amount of DMSO.
Product dilution: Stock at 10 mM in pure DMSO—range from 10 mM to 30 μM with an increment of 3 in pure DMSO—intermediate 1/50 dilutions in culture medium and then removal of 10 μl added directly to the cells (200 μl): final range of 10 000 to 30 nM.
At the end of the incubation, carefully remove the supernatant and rinse with 200 μl of PBS. Next, place 100 μl of lysis buffer directly in the wells on ice and incubate at 4° C. for 30 minutes. Lysis buffer: 10 mM Tris HCl, pH7.4, 100 mM NaCl, 1 mM EDTA, 1 mM EGTA, 1% Triton X-100, 10% glycerol, 0.1% SDS, 0.5% deoxycholate, 20 mM NaF, 2 mM Na3VO4, 1 mM PMSF and cocktail of antiproteases.
The 100 μl of lysates are transferred into a V-bottomed polypropylene plate and the ELISA is performed immediately, or the plate is frozen at −80° C. • b) PhosphoMET ELISA BioSource Kit KH00281
Into each well of the kit plate, add 70 μl of kit dilution buffer+30 μL of cell lysate or 30 μl of lysis buffer for the blanks. Incubate for 2 h with gentle agitation at ambient temperature.
Rinse the wells 4 times with 400 μl of kit washing buffer. Incubate with 100 μl of anti-phospho MET antibody for 1 hour at ambient temperature.
Rinse the wells 4 times with 400 μl of kit washing buffer. Incubate with 100 μl of anti-rabbit HRP antibody for 30 minutes at ambient temperature (except for the wells of chromogen alone).
Rinse the wells 4 times with 400 μl of kit washing buffer. Introduce 100 μL of chromogen and incubate for 30 minutes in the dark at ambient temperature.
(§1) Stop the reaction with 100 μl of stop solution. Read without delay at […], 0.1 second on Wallac Victor plate reader. • C) Test C: Measurement of cell proliferation by ^14c-thymidine pulse
Target sequence in this assay (P08581 25-1390): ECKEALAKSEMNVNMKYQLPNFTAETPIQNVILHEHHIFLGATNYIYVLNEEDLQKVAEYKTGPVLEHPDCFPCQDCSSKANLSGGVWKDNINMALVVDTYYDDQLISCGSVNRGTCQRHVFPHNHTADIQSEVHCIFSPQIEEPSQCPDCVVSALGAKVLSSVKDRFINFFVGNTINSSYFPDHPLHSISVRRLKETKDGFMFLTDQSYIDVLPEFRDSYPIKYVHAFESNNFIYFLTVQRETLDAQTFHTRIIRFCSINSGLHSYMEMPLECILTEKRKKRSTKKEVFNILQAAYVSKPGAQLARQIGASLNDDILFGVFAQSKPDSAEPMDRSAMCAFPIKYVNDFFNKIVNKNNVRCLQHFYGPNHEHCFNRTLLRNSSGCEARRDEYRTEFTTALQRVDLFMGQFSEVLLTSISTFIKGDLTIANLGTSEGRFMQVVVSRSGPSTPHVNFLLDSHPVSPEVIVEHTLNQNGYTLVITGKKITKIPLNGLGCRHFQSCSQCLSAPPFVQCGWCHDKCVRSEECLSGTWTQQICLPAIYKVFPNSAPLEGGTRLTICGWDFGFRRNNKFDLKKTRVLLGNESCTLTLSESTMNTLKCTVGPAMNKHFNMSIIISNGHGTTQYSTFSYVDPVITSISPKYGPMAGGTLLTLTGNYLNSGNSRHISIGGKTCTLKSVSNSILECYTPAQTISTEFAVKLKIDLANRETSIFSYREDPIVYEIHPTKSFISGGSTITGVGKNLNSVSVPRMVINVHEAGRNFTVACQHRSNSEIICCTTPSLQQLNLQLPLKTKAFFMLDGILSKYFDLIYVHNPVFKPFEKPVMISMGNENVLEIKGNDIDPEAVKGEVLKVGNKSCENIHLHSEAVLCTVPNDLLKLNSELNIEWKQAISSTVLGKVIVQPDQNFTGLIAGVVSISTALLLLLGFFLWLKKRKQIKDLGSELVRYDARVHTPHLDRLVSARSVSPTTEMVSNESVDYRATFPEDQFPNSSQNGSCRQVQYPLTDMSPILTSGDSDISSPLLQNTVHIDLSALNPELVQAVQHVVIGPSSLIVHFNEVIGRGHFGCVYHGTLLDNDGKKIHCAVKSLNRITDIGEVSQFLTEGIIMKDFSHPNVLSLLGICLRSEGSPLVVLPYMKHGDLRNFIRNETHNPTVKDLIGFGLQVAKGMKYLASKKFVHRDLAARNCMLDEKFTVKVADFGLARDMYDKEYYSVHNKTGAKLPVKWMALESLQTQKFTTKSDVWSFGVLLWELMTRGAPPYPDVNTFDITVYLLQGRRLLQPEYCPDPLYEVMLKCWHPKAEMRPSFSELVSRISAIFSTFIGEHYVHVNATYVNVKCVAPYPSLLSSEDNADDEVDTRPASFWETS

[2] = tested on: HCT116 cells, MKN45 cells; experiment: Test C: Measurement of cell proliferation by 14C-thymidine pulse; format: cell-based; settings: 14C-thymidine incorporation, 96 h of treatment; cell line not given
Experimental: as §1
The cells are seeded into Cytostar 96-well plates in 180 μl for 4 hours at 37° C. and 5% CO2: HCT116 cells at a rate of 2500 cells per well in DMEM medium+10% foetal calf serum+1% L-glutamine and MKN45 cells at a rate of 7500 cells per well in RPMI medium+10% foetal calf serum+1% L-glutamine. After these 4 hours of incubation, the products are added in 10 μl as a 20-fold concentrated solution according to the dilution method mentioned for the ELISA. The products are tested at 10 concentrations in duplicate from 10 000 nM to 0.3 nM with an increment of 3.
After treatment for 72 h, add 10 μl of ^14C-thymidine at 10 μCi/ml to obtain 0.1 μCi per well. The ^14C-thymidine incorporation is measured on a Micro-Beta machine (Perkin-Elmer) after 24 hours of pulse and 96 h of treatment.
All the steps of the assay are automated on BIOMEK 2000 or TECAN stations.

[3] = biological target: T1, MET; experiment: Test A: HTRF MET assay in 96-well format; format: biochemical; set-up: The His-Tev-MET (956-1390) recombinant DNA in pFastBac (Invitrogen) is transfected into insect cells; His tag (N, cleaved yes); TEV cleavage site (N); made in house; host or cells: SF21 insect cells (baculovirus, pFastBac); settings: MET 5 nM, 10 μM ATP
Experimental: I) Expression and Purification of MET, Cytoplasmic Domain
The His-Tev-MET (956-1390) recombinant DNA in pFastBac (Invitrogen) is transfected into insect cells, and after several viral amplification steps, the final baculovirus stock is tested for the expression of the protein of interest.
After infection for 72 h at 27° C. with the recombinant virus, the SF21 cell cultures are harvested by centrifugation and the cell pellets are stored at −80° C.
The cell pellets are resuspended in lysis buffer (buffer A [50 mM HEPES, pH 7.5, 250 mM NaCl, 10% glycerol, 1 mM TECP]; +cocktail of protease inhibitors, Roche Diagnostics, without EDTA, ref 1873580), stirred at 4° C. until the mixture is homogeneous and then lyzed mechanically using a “Dounce” type apparatus.
After centrifugation, the lysis supernatant is incubated for 2 h at 4° C. with nickel chelate resin (His-Trap 6 Fast Flow™, GE HealthCare). After washing with 20 volumes of buffer A, the suspension is packed into a column, and the proteins are eluted with a gradient of buffer B ([…]+290 mM imidazole).
The fractions containing the protein of interest for the purpose of electrophoretic analysis (SDS PAGE) are combined, concentrated by ultrafiltration (10 kDa cut-off) and injected onto an exclusion chromatography column (Superdex™ 200, GE HealthCare) equilibrated in buffer A.
After enzymatic cleavage of the histidine tag, the protein is reinjected onto a new IMAC nickel chelate chromatography column (His-Trap 6 Fast Flow™, GE HealthCare) equilibrated in buffer A. The fractions eluted with a gradient of buffer B and containing the protein of interest after electrophoresis (SDS PAGE) are finally combined and conserved at −80° C.
For the production of autophosphorylated protein, the previous fractions are incubated for 1 h at ambient temperature after the addition of 2 mM ATP, 2 mM MgCl2, and 4 mM Na3VO4. After the reaction has been stopped with 5 mM of EDTA, the reaction mixture is injected onto a HiPrep desalifying column (GE HealthCare) preequilibrated in buffer A+4 mM Na3VO4, and the fractions containing the protein of interest (SDS PAGE analysis) are combined and stored at −80° C. The degree of phosphorylation is verified by mass spectrometry (LC-MS) and by peptide mapping.
• A) Test A: HTRF MET assay in 96-well format
MET at a final concentration of 5 nM is incubated in a final volume of 50 μl of enzymatic reaction in the presence of the test molecule (for a final concentration range of from 0.17 nM to 10 μM, 3% DMSO final concentration) in 10 mM MOPS buffer, pH 7.4, 1 mM DTT, 0.01% Tween 20. The reaction is initiated with the substrate solution to obtain final concentrations of 1 μg/ml poly-(GAT), 10 μM ATP and 5 mM MgCl2. After incubation for 10 min at ambient temperature, the reaction is stopped with a 30 μl mix so as to obtain a final solution of 50 mM Hepes pH 7.5, 500 mM potassium fluoride, 0.1% BSA and 133 mM EDTA in the presence of 80 ng of streptavidin 61SAXLB Cis-Bio Int. and 18 ng of anti-phosphotyrosine Mab PT66-Europium Cryptate per well. After incubation for 2 hours at ambient temperature, the reading is taken at 2 wavelengths, 620 nm and 665 nm, on a reader for the TRACE/HTRF technique and the % inhibition is calculated from the 665/620 ratios.
Target sequence in this assay (P08581 956-1390): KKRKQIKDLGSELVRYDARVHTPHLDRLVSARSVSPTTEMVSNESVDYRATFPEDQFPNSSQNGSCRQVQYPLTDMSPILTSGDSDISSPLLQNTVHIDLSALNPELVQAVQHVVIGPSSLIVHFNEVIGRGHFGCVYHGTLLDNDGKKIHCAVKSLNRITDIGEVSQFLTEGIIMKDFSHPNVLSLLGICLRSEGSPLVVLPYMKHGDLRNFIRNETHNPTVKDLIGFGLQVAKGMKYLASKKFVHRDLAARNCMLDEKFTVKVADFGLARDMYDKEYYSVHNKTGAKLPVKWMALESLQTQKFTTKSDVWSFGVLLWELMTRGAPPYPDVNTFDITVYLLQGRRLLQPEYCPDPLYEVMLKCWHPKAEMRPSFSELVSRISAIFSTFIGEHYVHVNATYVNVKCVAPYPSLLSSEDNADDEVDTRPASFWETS

Row | Compound | IC50 [1] [nM] | IC50 [2] [nM] | IC50 [3] [nM]
1 | CCN(CC)CCNC(=O)Nc1nc2ccc(Sc3nnc4ccc(-c5ccc(F)cc5)nn34)cc2s1 [Example 17, 1-[2-(Diethylamino)ethyl]-3-(6-{[6-(4-fluorophenyl)[1,2,4]triazolo[4,3-b]pyridazin-3-yl]sulphanyl}-1,3-benzothiazol-2-yl)urea] | < 100 | < 1000 | < 100
2 | CC(=O)Nc1nc2ccc(Sc3nnc4ccc(N5CCOCC5)nn34)cc2s1 [Example 18, N-(6-{[6-(Morpholin-4-yl)[1,2,4]triazolo[4,3-b]pyridazin-3-yl]sulphanyl}-1,3-benzothiazol-2-yl)acetamide] | 100 to 500 | < 1000 | < 100
3 | CN1CCN(c2ccc3nnc(Sc4ccc5nc(NC(=O)OC(C)(C)C)sc5c4)n3n2)CC1 [Example 19, 1,1-Dimethylethyl (6-{[6-(4-methylpiperazin-1-yl)[1,2,4]triazolo[4,3-b]pyridazin-3-yl]sulphanyl}-1,3-benzothiazol-2-yl)carbamate hydrochloride] | < 100 | < 1000 | < 100
4 | O=C(NCCN1CCOCC1)Nc1nc2ccc(Sc3nnc4ccc(-n5ccnc5)nn34)cc2s1 [Example 20, 1-(6-{[6-(1H-Imidazol-1-yl)[1,2,4]triazolo[4,3-b]pyridazin-3-yl]sulphanyl}-1,3-benzothiazol-2-yl)-3-[2-(morpholin-4-yl)ethyl]urea] | < 100 | < 1000 | < 100
5 | COc1ccc2nnc(Sc3ccc4nc(NC(=O)OC(C)(C)C)sc4c3)n2n1 [Example 21, 1,1-Dimethylethyl {6-[(6-methoxy[1,2,4]triazolo[4,3-b]pyridazin-3-yl)sulphanyl]-1,3-benzothiazol-2-yl}carbamate] | 100 to 500 | < 1000 | < 100
6 | CC(C)(C)OC(=O)Nc1nc2ccc(Sc3nnc4ccc(-n5ccnc5)nn34)cc2s1 [Example 22, 1,1-Dimethylethyl (6-{[6-(1H-imidazol-1-yl)[1,2,4]triazolo[4,3-b]pyridazin-3-yl]sulphanyl}-1,3-benzothiazol-2-yl)carbamate] | 100 to 500 | < 1000 | < 100
7 | COc1ccc2nnc(Sc3ccc4nc(NC(=O)NCCN5CCOCC5)sc4c3)n2n1 [Example 23, 1-{6-[(6-Methoxy[1,2,4]triazolo[4,3-b]pyridazin-3-yl)sulphanyl]-1,3-benzothiazol-2-yl}-3-[2-(morpholin-4-yl)ethyl]urea] | < 100 | < 1000 | < 100
8 | COCCNc1ccc2nnc(Sc3ccc4nc(NC(=O)OC(C)(C)C)sc4c3)n2n1 [Example 24, 1,1-Dimethylethyl[6-({6-[(2-methoxyethyl)amino][1,2,4]triazolo[4,3-b]pyridazin-3-yl}sulphanyl)-1,3-benzothiazol-2-yl]carbamate] | < 100 | < 1000 | < 100

The remaining lines, values ahead:

Row | IC50 [1] [nM] | IC50 [2] [nM] | IC50 [3] [nM] | Compound
9 | < 100 | < 1000 | < 100 | O=C(Nc1nc2ccc(Sc3nnc4ccc(-c5ccc(F)cc5)nn34)cc2s1)OCCN1CCOCC1 [Example 12, 2-Morpholin-4-ylethyl (6-{[6-(4-fluorophenyl)[1,2,4]triazolo[4,3-b]pyridazin-3-yl]sulphanyl}-1,3-benzothiazol-2-yl)carbamate]
10 | < 100 | < 1000 | < 100 | CN1CCN(CCNC(=O)Nc2nc3ccc(Sc4nnc5n4N=C(c4ccc(F)cc4)CC5)cc3s2)CC1 [Example 13, 1-(6-{[6-(4-Fluorophenyl)-7,8-dihydro[1,2,4]triazolo[4,3-b]pyridazin-3-yl]sulphanyl}-1,3-benzothiazol-2-yl)-3-[2-(4-methylpiperazin-1-yl)ethyl]urea]
11 | < 100 | < 1000 | < 100 | CN1CCN(CCNC(=O)Nc2nc3ccc(Sc4nnc5ccc(-c6ccc(F)cc6)nn45)cc3s2)CC1 [Example 14, 1-(6-{[6-(4-Fluorophenyl)[1,2,4]triazolo[4,3-b]pyridazin-3-yl]sulphanyl}-1,3-benzothiazol-2-yl)-3-[2-(4-methylpiperazin-1-yl)ethyl]urea]
12 | < 100 | < 1000 | < 100 | O=C(CCCN1CCOCC1)Nc1nc2ccc(Sc3nnc4ccc(-c5ccc(F)cc5)nn34)cc2s1 [Example 15, N-(6-{[6-(4-Fluorophenyl)[1,2,4]triazolo[4,3-b]pyridazin-3-yl]sulphanyl}-1,3-benzothiazol-2-yl)-4-morpholin-4-ylbutanamide]
13 | < 100 | < 1000 | < 100 | CC(C)(C)OC(=O)Nc1nc2ccc(Sc3nnc4ccc(N5CCOCC5)nn34)cc2s1 [Example 16, 1,1-Dimethylethyl (6-{[6-(morpholin-4-yl)[1,2,4]triazolo[4,3-b]pyridazin-3-yl]sulphanyl}-1,3-benzothiazol-2-yl)carbamate]
